# Legend:
# AMV DNA polymerase = experiment: Fidelity of in vitro DNA synthesis (error frequency) with AMV DNA polymerase copying synthetic polynucleotide templates
# Description: In this invention, the ability of carcinogens to decrease the fidelity of in vitro DNA synthesis will be used to screen for carcinogenic or mutagenic agents. The system uses synthetic polynucleotides of defined composition which may be copied in the test tubes with procaryotic, eucaryotic or viral DNA polymerases. The use of synthetic polynucleotides of defined composition allows the measurement of the simultaneous incorporation of the correct, complementary nucleotide and an incorrect, non-complementary nucleotide. The correct nucleotide is labeled with [α-^32 P] of low specific activity and the incorrect nucleotide is labeled with [^3 H] of high specific activity. Through this double labeled reaction it is possible to determine the simultaneous incorporation of both nucleotides and thus to determine an error frequency. The error frequency may be defined as the ratio of the incorrect/correct nucleotide incorporation. Agents which increase this error frequency may be scored as positive. […] Agents which score positive would be checked using different templates to underscore the positive results. In this system different polymerases will be used as well as different templates. One would expect that most carcinogens would change the fidelity of DNA synthesis with different polymerases as well as with different templates though this need not be the case.
# Each assay will consist of a polymerase, a polynucleotide template that only contains one or two nucleotides, a complementary nucleotide and a non-complementary nucleotide as well as magnesium. Both of the nucleotides will be labeled by radioactive precursors and the ratio between the two is to be used for a measure of error frequency in the system. In instances where a template requires two complementary nucleotides, only one will be radioactively labeled.
# Reactions (total volume 0.05 ml) which measured complementary nucleotide incorporation contained 50 mM Tris-HCL (pH 8.0), 20 mM KCl, 5 mM dithiothreitol, 5 mM MgCl2, 2μg BSA, […] [α-^32 P] -dTTP (60 dpm/pmole), 1μg poly (A).oligo (dT) (1:1.5 mass ratio), and 0.45 μg of AMV DNA polymerase. For simultaneous quantitation of complementary and non-complementary nucleotide incorporation each reaction was modified to contain 26μM [α-^32 P]dTTP (12 dpm/pmole) and 23μM [^3 H]-dCTP (50,000 dpm/pmole). […] Metals were added directly to the reaction mixture as aqueous solutions of chloride salts. All reactions were incubated for 60 min. at 37° C. Incorporation of radioactive nucleotides into an acid-insoluble and alkali-resistant product was determined by using the precipitation-solubilization procedure as described by Battula and Loeb. All experiments were performed in triplicate and the averages were determined.
# In order to determine the effect of different metals on the accuracy of DNA replication, metal cations were added as chloride salts directly to the polymerase reaction. In these experiments, poly (A).oligo (dT) was the template-primer and the simultaneous incorporation of complementary nucleotide, [α-^32 P]-dTMP, and the non-complementery nucleotide, [^3 H]-dCMP, was determined.
# The effect of metal salts on the fidelity of DNA synthesis was examined by testing each of the metal salts at a minimum of seven different concentrations.
# [1] = known status of the compound; cited from earlier work
# [2] = Table 1, template poly [d(A-T)], classes 1-3 not defined
# [3] = Table 1, template poly (C).oligo (dG), classes 1-3 not defined
# [4] = 0.08 mM CrCl2, template in drawing 1
# [5] = 0.16 mM CrCl2, template in drawing 1
# [6] = 0.24 mM CrCl2, template in drawing 1
# [7] = 0.64 mM CrCl2, template in drawing 1
# [8] = 0.8 mM Ca(C2 H3 O2)2, template in drawing 3
# [9] = 2.4 mM Ca(C2 H3 O2)2, template in drawing 3
# [10] = 4.0 mM Ca(C2 H3 O2)2, template in drawing 3
# [11] = 4.8 mM Ca(C2 H3 O2)2, template in drawing 3
# [12] = 4 mM MgSO4, template in drawing 6
# [13] = 6 mM MgSO4, template in drawing 6
# [14] = 8 mM MgSO4, template in drawing 6
# [15] = 10 mM MgSO4, template in drawing 6
# [16] = 8 mM K2 HPO4, template in drawing 4
# [17] = 16 mM K2 HPO4, template in drawing 4
# [18] = 32 mM K2 HPO4, template in drawing 4
# [19] = 40 mM K2 HPO4, template in drawing 4
# [20] = 0.02 mM CuCl2, template in drawing 2
# [21] = 0.04 mM CuCl2, template in drawing 2
# [22] = 0.08 mM CuCl2, template in drawing 2
# [23] = 0.12 mM CuCl2, template in drawing 2
compound,measurement,setting,value
O=P([O-])(O)O.[K+] [KH2 PO4],Class,AMV DNA polymerase; [2],2
same,Metal Concentration which yielded the largest observed change in error rate,AMV DNA polymerase; template poly [d(A-T)],80 mM
same,Carcinogen or Mutagen,[1],-
[Cl][Mn][Cl] [MnCl2],Class,AMV DNA polymerase; [3],1
same,Metal Concentration which yielded the largest observed change in error rate,AMV DNA polymerase; template poly (C).oligo (dG),10 mM
same,effect on the fidelity of DNA synthesis (in words),AMV DNA polymerase; various templates,alter the fidelity
Cn1c(=O)c2c(ncn2C)n(C)c1=O [caffeine],effect on the fidelity of DNA synthesis (in words),"AMV DNA polymerase; 0.1-20 mM, poly (A).oligo (dT)",did not alter the fidelity of DNA synthesis
[O]=[Cr](=[O])=[O] [CrO3],Class,AMV DNA polymerase; [2],1
same,Metal Concentration which yielded the largest observed change in error rate,AMV DNA polymerase; template poly [d(A-T)],16 mM
same,Carcinogen or Mutagen,[1],+
O=[N+]([O-])[O-].[Ag+] [AgNO3],Class,AMV DNA polymerase; [2],1
same,Metal Concentration which yielded the largest observed change in error rate,AMV DNA polymerase; template poly [d(A-T)],0.03 mM
same,Carcinogen or Mutagen,[1],+
[Cl][Cd][Cl] [CdCl2],Class,AMV DNA polymerase; [3],1
same,Metal Concentration which yielded the largest observed change in error rate,AMV DNA polymerase; template poly (C).oligo (dG),0.04 mM
same,Carcinogen or Mutagen,[1],+
CC1=C(/C=C/C(C)=C/C=C/C(C)=C/CO)C(C)(C)CCC1 [retinol],effect on the fidelity of DNA synthesis (in words),"AMV DNA polymerase; 0.2-2μg, poly (A).oligo (dT)",did not alter the fidelity of DNA synthesis
[Cl][Pb][Cl] [PbCl2],Class,AMV DNA polymerase; [3],1
same,Metal Concentration which yielded the largest observed change in error rate,AMV DNA polymerase; template poly (C).oligo (dG),4 mM
same,Carcinogen or Mutagen,[1],+
[Cl-].[Rb+] [RbCl2],Class,AMV DNA polymerase; [2],2
same,Metal Concentration which yielded the largest observed change in error rate,AMV DNA polymerase; template poly [d(A-T)],20 mM
same,Carcinogen or Mutagen,[1],-
[Cl][Cr][Cl] [CrCl2],Complementary Deoxynucleotide Incorporation,AMV DNA polymerase; [4],133 pmol
same,Error Frequency,AMV DNA polymerase; [4],1/578
same,Non-complementary Deoxynucleotide Incorporation,AMV DNA polymerase; [4],0.23 pmol
same,Complementary Deoxynucleotide Incorporation,AMV DNA polymerase; [5],169 pmol
same,Error Frequency,AMV DNA polymerase; [5],1/528
same,Non-complementary Deoxynucleotide Incorporation,AMV DNA polymerase; [5],0.32 pmol
same,Complementary Deoxynucleotide Incorporation,AMV DNA polymerase; [6],127 pmol
same,Error Frequency,AMV DNA polymerase; [6],1/363
same,Non-complementary Deoxynucleotide Incorporation,AMV DNA polymerase; [6],0.35 pmol
same,Complementary Deoxynucleotide Incorporation,AMV DNA polymerase; [7],71 pmol
same,Error Frequency,AMV DNA polymerase; [7],1/192
same,Non-complementary Deoxynucleotide Incorporation,AMV DNA polymerase; [7],0.37 pmol
same,Class,AMV DNA polymerase; [2],1
same,Metal Concentration which yielded the largest observed change in error rate,AMV DNA polymerase; template poly [d(A-T)],0.64 mM
same,Carcinogen or Mutagen,[1],+
[Cl][Fe][Cl] [FeCl2],Class,AMV DNA polymerase; [3],2
same,Metal Concentration which yielded the largest observed change in error rate,AMV DNA polymerase; template poly (C).oligo (dG),4 mM
same,Carcinogen or Mutagen,[1],±
CC(=O)[O-].CC(=O)[O-].[Cd+2] [Cd(C2 H3 O2)2],Class,AMV DNA polymerase; [3],1
same,Metal Concentration which yielded the largest observed change in error rate,AMV DNA polymerase; template poly (C).oligo (dG),0.24 mM
same,Carcinogen or Mutagen,[1],+
CC(=O)[O-].CC(=O)[O-].[Cu+2] [Cu(C2 H3 O2)2],Class,AMV DNA polymerase; [3],1
same,Metal Concentration which yielded the largest observed change in error rate,AMV DNA polymerase; template poly (C).oligo (dG),0.12 mM
same,Carcinogen or Mutagen,[1],±
CC(=O)O [Ca(C2 H3 O2)2],Complementary Deoxynucleotide Incorporation,AMV DNA polymerase; [8],217 pmol
same,Error Frequency,AMV DNA polymerase; [8],1/986
same,Non-complementary Deoxynucleotide Incorporation,AMV DNA polymerase; [8],0.22 pmol
same,Complementary Deoxynucleotide Incorporation,AMV DNA polymerase; [9],78 pmol
same,Error Frequency,AMV DNA polymerase; [9],1/975
same,Non-complementary Deoxynucleotide Incorporation,AMV DNA polymerase; [9],0.08 pmol
same,Complementary Deoxynucleotide Incorporation,AMV DNA polymerase; [10],39 pmol
same,Error Frequency,AMV DNA polymerase; [10],1/975
same,Non-complementary Deoxynucleotide Incorporation,AMV DNA polymerase; [10],0.04 pmol
same,Complementary Deoxynucleotide Incorporation,AMV DNA polymerase; [11],17 pmol
same,Error Frequency,AMV DNA polymerase; [11],1/850
same,Non-complementary Deoxynucleotide Incorporation,AMV DNA polymerase; [11],0.02 pmol
same,Class,"AMV DNA polymerase; Table 2, classes not defined",2
O=S(=O)([O-])[O-].[Mg+2] [MgSO4],Complementary Deoxynucleotide Incorporation,AMV DNA polymerase; [12],299 pmol
same,Error Frequency,AMV DNA polymerase; [12],1/598
same,Non-complementary Deoxynucleotide Incorporation,AMV DNA polymerase; [12],0.50 pmol
same,Complementary Deoxynucleotide Incorporation,AMV DNA polymerase; [13],398 pmol
same,Error Frequency,AMV DNA polymerase; [13],1/632
same,Non-complementary Deoxynucleotide Incorporation,AMV DNA polymerase; [13],0.63 pmol
same,Complementary Deoxynucleotide Incorporation,AMV DNA polymerase; [14],349 pmol
same,Error Frequency,AMV DNA polymerase; [14],1/635
same,Non-complementary Deoxynucleotide Incorporation,AMV DNA polymerase; [14],0.55 pmol
same,Complementary Deoxynucleotide Incorporation,AMV DNA polymerase; [15],360 pmol
same,Error Frequency,AMV DNA polymerase; [15],1/621
same,Non-complementary Deoxynucleotide Incorporation,AMV DNA polymerase; [15],0.58 pmol
same,Class,AMV DNA polymerase; [3],3
same,Class,"AMV DNA polymerase; Table 2, classes not defined",3
same,Metal Concentration which yielded the largest observed change in error rate,AMV DNA polymerase; template poly (C).oligo (dG),10 mM
same,Carcinogen or Mutagen,[1],-
O=P([O-])([O-])O.[K+].[K+] [K2 HPO4],Complementary Deoxynucleotide Incorporation,AMV DNA polymerase; [16],179 pmol
same,Error Frequency,AMV DNA polymerase; [16],1/814
same,Non-complementary Deoxynucleotide Incorporation,AMV DNA polymerase; [16],0.22 pmol
same,Complementary Deoxynucleotide Incorporation,AMV DNA polymerase; [17],180 pmol
same,Error Frequency,AMV DNA polymerase; [17],1/783
same,Non-complementary Deoxynucleotide Incorporation,AMV DNA polymerase; [17],0.23 pmol
same,Complementary Deoxynucleotide Incorporation,AMV DNA polymerase; [18],107 pmol
same,Error Frequency,AMV DNA polymerase; [18],1/823
same,Non-complementary Deoxynucleotide Incorporation,AMV DNA polymerase; [18],0.13 pmol
same,Complementary Deoxynucleotide Incorporation,AMV DNA polymerase; [19],48 pmol
same,Error Frequency,AMV DNA polymerase; [19],1/960
same,Non-complementary Deoxynucleotide Incorporation,AMV DNA polymerase; [19],0.05 pmol
same,Class,AMV DNA polymerase; [2],2
same,Class,"AMV DNA polymerase; Table 2, classes not defined",2
same,Metal Concentration which yielded the largest observed change in error rate,AMV DNA polymerase; template poly [d(A-T)],40 mM
same,Carcinogen or Mutagen,[1],-
N.N.O=S(=O)(O)O [(NH4)2 SO4],Class,AMV DNA polymerase; [3],2
same,Metal Concentration which yielded the largest observed change in error rate,AMV DNA polymerase; template poly (C).oligo (dG),120 mM
same,Carcinogen or Mutagen,[1],-
[Cl][Cu][Cl] [CuCl2],Complementary Deoxynucleotide Incorporation,AMV DNA polymerase; [20],385 pmol
same,Error Frequency,AMV DNA polymerase; [20],1/875
same,Non-complementary Deoxynucleotide Incorporation,AMV DNA polymerase; [20],0.44 pmol
same,Complementary Deoxynucleotide Incorporation,AMV DNA polymerase; [21],130 pmol
same,Error Frequency,AMV DNA polymerase; [21],1/722
same,Non-complementary Deoxynucleotide Incorporation,AMV DNA polymerase; [21],0.18 pmol
same,Complementary Deoxynucleotide Incorporation,AMV DNA polymerase; [22],54 pmol
same,Error Frequency,AMV DNA polymerase; [22],1/540
same,Non-complementary Deoxynucleotide Incorporation,AMV DNA polymerase; [22],0.10 pmol
same,Complementary Deoxynucleotide Incorporation,AMV DNA polymerase; [23],36 pmol
same,Error Frequency,AMV DNA polymerase; [23],1/450
same,Non-complementary Deoxynucleotide Incorporation,AMV DNA polymerase; [23],0.08 pmol
same,Class,AMV DNA polymerase; [3],1
same,Metal Concentration which yielded the largest observed change in error rate,AMV DNA polymerase; template poly (C).oligo (dG),0.08 mM
same,Carcinogen or Mutagen,[1],±
[Cl-].[Na+] [NaCl],Class,AMV DNA polymerase; [2],2
same,Metal Concentration which yielded the largest observed change in error rate,AMV DNA polymerase; template poly [d(A-T)],120 mM
NCCCCNCCCN [spermidine],effect on the fidelity of DNA synthesis (in words),"AMV DNA polymerase; 0.1 to 5 mM, poly (A).oligo (dT)",did not alter the fidelity of DNA synthesis
